Starred links: 1 amine or outer side, 2 acyl side, 3 side chain; linkers in the order of their positions; H or OH if unused. Non-standard residues stand in square brackets, D forms with d. Residues, ends and D or L forms follow the SMILES beside them. Groups on a side chain read outwards from the residue. *: point of attachment. C18 diacid = O=C(O)CCCCCCCCCCCCCCCCC(=O)*; αMePhe(2-F) = C[C@](N)(Cc1ccccc1F)C(=O)O; γGlu = O=C(O)[C@H](CCC(=O)[*:2])N[*:1]; AEEA = NCCOCCOCC(=O)O; Aib = CC(C)(N)C(=O)O
Tests used:
Type in all cases: cell-based
GLP-1R = target: T1, GLP-1R (Homo sapiens, UniProt P43220); assay: In vitro cell activity, cAMP production in HEK293 cells expressing GLP-1R; settings: HEK293-GLP-1R cells, cAMP; read-out: GLP-1R (EC50)
T1 construct: expressed in transfected cells; host or cells: HEK293 (HEK293-GLP-1R)
T1 sequence (P43220 24-463, species assumed): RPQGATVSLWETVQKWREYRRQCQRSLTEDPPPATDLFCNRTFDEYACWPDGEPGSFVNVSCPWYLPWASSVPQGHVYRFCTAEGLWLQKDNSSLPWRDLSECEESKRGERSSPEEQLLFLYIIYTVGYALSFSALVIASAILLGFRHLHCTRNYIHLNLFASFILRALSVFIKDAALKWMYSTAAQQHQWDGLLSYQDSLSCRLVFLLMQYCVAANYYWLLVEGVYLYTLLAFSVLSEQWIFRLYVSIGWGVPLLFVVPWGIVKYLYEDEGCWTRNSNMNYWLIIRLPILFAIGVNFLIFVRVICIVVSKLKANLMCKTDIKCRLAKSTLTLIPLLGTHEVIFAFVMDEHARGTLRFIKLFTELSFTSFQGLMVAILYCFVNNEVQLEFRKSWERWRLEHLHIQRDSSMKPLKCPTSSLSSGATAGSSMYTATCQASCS
Procedure, shortened: (§1)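 cAMP output read as 665/620 nm HTRF ratio after adding cAMP-d2 plus anti-cAMP cryptate and incubating 1 h at room temperature in the dark or overnight at 4 °C. Cells: HEK293 expressing human GLP-1R or GCGR, plated from a 4×10^5 cells/mL suspension. Four-parameter fit gives EC50.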

GCGR = target: T2, GCGR (Homo sapiens, UniProt P47871); assay: In vitro cell activity, cAMP production in HEK293 cells expressing GCGR; settings: HEK293-GCGR cells, cAMP; read-out: GCGR (EC50)
T2 construct: expressed in transfected cells; host or cells: HEK293 (HEK293-GCGR)
T2 sequence (P47871 26-477, species assumed): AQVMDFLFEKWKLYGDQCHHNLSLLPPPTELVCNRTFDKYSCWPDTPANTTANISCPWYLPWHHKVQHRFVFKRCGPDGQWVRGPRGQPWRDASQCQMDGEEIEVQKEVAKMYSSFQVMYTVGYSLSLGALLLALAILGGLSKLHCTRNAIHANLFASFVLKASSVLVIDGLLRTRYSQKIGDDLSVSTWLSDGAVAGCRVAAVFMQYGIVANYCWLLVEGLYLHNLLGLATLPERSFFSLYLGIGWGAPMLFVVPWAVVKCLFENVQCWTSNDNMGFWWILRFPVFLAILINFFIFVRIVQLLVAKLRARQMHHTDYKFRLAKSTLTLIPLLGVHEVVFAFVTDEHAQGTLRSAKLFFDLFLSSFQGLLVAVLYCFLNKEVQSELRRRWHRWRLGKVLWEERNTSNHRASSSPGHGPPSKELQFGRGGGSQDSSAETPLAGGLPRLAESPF
Procedure, shortened: as §1

GIPR = target: T3, GIPR (Homo sapiens, UniProt P48546); assay: In vitro cell activity, cAMP production in HEK293 cells expressing GIPR; settings: HEK293-GIPR cells, cAMP; read-out: GIPR (EC50)
T3 construct: expressed in transfected cells; host or cells: HEK293 (HEK293-GIPR)
T3 sequence (P48546 22-466): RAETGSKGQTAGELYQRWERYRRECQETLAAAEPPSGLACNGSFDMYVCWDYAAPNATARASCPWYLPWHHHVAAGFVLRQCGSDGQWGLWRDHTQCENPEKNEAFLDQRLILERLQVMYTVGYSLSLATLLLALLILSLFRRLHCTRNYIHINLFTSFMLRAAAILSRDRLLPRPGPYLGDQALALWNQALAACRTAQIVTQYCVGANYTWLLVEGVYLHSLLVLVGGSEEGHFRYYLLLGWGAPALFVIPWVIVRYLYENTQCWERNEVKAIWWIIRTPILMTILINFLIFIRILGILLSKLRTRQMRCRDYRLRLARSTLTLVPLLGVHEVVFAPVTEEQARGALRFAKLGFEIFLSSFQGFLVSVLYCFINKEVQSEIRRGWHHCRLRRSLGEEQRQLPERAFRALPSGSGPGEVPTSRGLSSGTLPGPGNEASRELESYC
Procedure, shortened: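 HEK293 cells expressing human GIPR, thawed and diluted to 4×10^5 cells/mL, are stimulated with test compound. cAMP is measured by HTRF competition between cAMP-d2 and anti-cAMP cryptate. EC50 comes from a four-parameter nonlinear fit of signal ratio against concentration.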

Compound	EC50 (GLP-1R)	EC50 (GCGR)	EC50 (GIPR)
CC[C@H](C)[C@H](NC(=O)[C@H](CCCCN)NC(=O)[C@H](CC(=O)O)NC(=O)[C@H](CCCCNC(=O)COCCOCCNC(=O)CC[C@H](NC(=O)CCCCCCCCCCCCCCCCC(=O)O)C(=O)O)NC(=O)[C@H](CC(C)C)NC(=O)[C@@H](NC(=O)[C@H](CO)NC(=O)[C@H](Cc1ccc(O)cc1)NC(=O)[C@H](CC(=O)O)NC(=O)[C@H](CO)NC(=O)[C@@H](NC(=O)[C@](C)(Cc1ccccc1F)NC(=O)[C@@H](NC(=O)CNC(=O)[C@H](CCC(N)=O)NC(=O)C(C)(C)NC(=O)[C@@H](N)Cc1ccc(O)cc1)[C@@H](C)O)[C@@H](C)O)[C@@H](C)CC)C(=O)N[C@@H](C)C(=O)N[C@@H](CCC(N)=O)C(=O)NC(C)(C)C(=O)N[C@@H](C)C(=O)N[C@@H](Cc1ccccc1)C(=O)N[C@H](C(=O)N[C@@H](CCC(=O)O)C(=O)N[C@@H](Cc1ccc(O)cc1)C(=O)N[C@@H](CC(C)C)C(=O)N[C@@H](CC(C)C)C(=O)N[C@@H](C)C(=O)NCC(=O)NCC(=O)N1CCC[C@H]1C(=O)N[C@@H](CO)C(=O)N[C@@H](CO)C(=O)NCC(=O)N[C@@H](C)C(=O)N1CCC[C@H]1C(=O)N1CCC[C@H]1C(=O)N1CCC[C@H]1C(=O)N[C@@H](CO)C(N)=O)[C@@H](C)CC [HEC-PT139] (H-Y[Aib]QGT[αMePhe(2-F)]TSDYSILK([AEEA-γGlu-C18 diacid])DKIAQ[Aib]AFIEYLLAGGPSSGAPPPS-NH2)	0.158 nM	0.0821 nM	0.0359 nM
CC[C@H](C)[C@H](NC(=O)[C@H](CCCCN)NC(=O)[C@H](CC(=O)O)NC(=O)[C@H](CCCCNC(=O)COCCOCCNC(=O)CC[C@H](NC(=O)CCCCCCCCCCCCCCCCC(=O)O)C(=O)O)NC(=O)[C@H](CC(C)C)NC(=O)[C@@H](NC(=O)[C@H](CO)NC(=O)[C@H](Cc1ccc(O)cc1)NC(=O)[C@H](CC(=O)O)NC(=O)[C@H](CO)NC(=O)[C@@H](NC(=O)[C@](C)(Cc1ccccc1F)NC(=O)[C@@H](NC(=O)CNC(=O)[C@H](CCC(N)=O)NC(=O)C(C)(C)NC(=O)[C@@H](N)Cc1ccc(O)cc1)[C@@H](C)O)[C@@H](C)O)[C@@H](C)CC)C(=O)N[C@@H](C)C(=O)N[C@@H](CCC(N)=O)C(=O)N[C@@H](CCC(N)=O)C(=O)N[C@@H](C)C(=O)N[C@@H](Cc1ccccc1)C(=O)N[C@H](C(=O)N[C@@H](CCC(=O)O)C(=O)N[C@@H](Cc1ccc(O)cc1)C(=O)N[C@@H](CC(C)C)C(=O)N[C@@H](CC(C)C)C(=O)N[C@@H](C)C(=O)NCC(=O)NCC(=O)N1CCC[C@H]1C(=O)N[C@@H](CO)C(=O)N[C@@H](CO)C(=O)NCC(=O)N[C@@H](C)C(=O)N1CCC[C@H]1C(=O)N1CCC[C@H]1C(=O)N1CCC[C@H]1C(=O)N[C@@H](CO)C(N)=O)[C@@H](C)CC [HEC-PT122] (H-Y[Aib]QGT[αMePhe(2-F)]TSDYSILK([AEEA-γGlu-C18 diacid])DKIAQQAFIEYLLAGGPSSGAPPPS-NH2)	0.0893 nM	0.162 nM	0.0276 nM
CC[C@H](C)[C@H](NC(=O)[C@H](Cc1ccccc1)NC(=O)[C@H](C)NC(=O)[C@H](CCCCN)NC(=O)[C@H](CCC(N)=O)NC(=O)[C@H](CCCCN)NC(=O)[C@H](CCCCNC(=O)COCCOCCNC(=O)CC[C@H](NC(=O)CCCCCCCCCCCCCCCCC(=O)O)C(=O)O)NC(=O)[C@H](CCC(=O)O)NC(=O)[C@H](CC(=O)O)NC(=O)[C@H](CC(C)C)NC(=O)[C@H](CC(C)C)NC(=O)[C@@H](NC(=O)[C@H](CO)NC(=O)[C@H](Cc1ccc(O)cc1)NC(=O)[C@H](CC(=O)O)NC(=O)[C@H](CO)NC(=O)[C@@H](NC(=O)[C@](C)(Cc1ccccc1F)NC(=O)[C@@H](NC(=O)CNC(=O)[C@H](CCC(N)=O)NC(=O)C(C)(C)NC(=O)[C@@H](N)Cc1ccc(O)cc1)[C@@H](C)O)[C@@H](C)O)[C@@H](C)CC)C(=O)N[C@@H](CCC(=O)O)C(=O)N[C@@H](Cc1ccc(O)cc1)C(=O)N[C@@H](CC(C)C)C(=O)N[C@@H](CC(C)C)C(=O)N[C@@H](C)C(=O)NCC(=O)NCC(=O)N1CCC[C@H]1C(=O)N[C@@H](CO)C(=O)N[C@@H](CO)C(=O)NCC(=O)N[C@@H](C)C(=O)N1CCC[C@H]1C(=O)N1CCC[C@H]1C(=O)N1CCC[C@H]1C(=O)N[C@@H](CO)C(N)=O [HEC-PT130]	0.17 nM	4.86 nM	0.541 nM
CC[C@H](C)[C@H](NC(=O)[C@H](Cc1ccccc1)NC(=O)[C@H](CC(=O)O)NC(=O)[C@H](CCCNC(=N)N)NC(=O)[C@H](CCC(N)=O)NC(=O)[C@H](C)NC(=O)[C@H](CCCCNC(=O)COCCOCCNC(=O)CC[C@H](NC(=O)CCCCCCCCCCCCCCCCCCC(=O)O)C(=O)O)NC(=O)[C@H](CCC(=O)O)NC(=O)[C@H](CC(=O)O)NC(=O)[C@H](CC(C)C)NC(=O)[C@H](CC(C)C)NC(=O)[C@@H](NC(=O)[C@H](CO)NC(=O)[C@H](Cc1ccc(O)cc1)NC(=O)[C@H](CC(=O)O)NC(=O)[C@H](CO)NC(=O)[C@@H](NC(=O)[C@](C)(Cc1ccccc1F)NC(=O)[C@@H](NC(=O)CNC(=O)[C@H](Cc1c[nH]cn1)NC(=O)C(C)(C)NC(=O)[C@@H](N)Cc1ccc(O)cc1)[C@@H](C)O)[C@@H](C)O)[C@@H](C)CC)C(=O)N[C@@H](CCC(=O)O)C(=O)N[C@@H](Cc1c[nH]c2ccccc12)C(=O)N[C@@H](CC(C)C)C(=O)N[C@@H](CC(C)C)C(=O)N[C@@H](C)C(=O)NCC(=O)NCC(=O)N1CCC[C@H]1C(=O)N[C@@H](CO)C(=O)N[C@@H](CO)C(=O)NCC(=O)N[C@@H](C)C(=O)N1CCC[C@H]1C(=O)N1CCC[C@H]1C(=O)N1CCC[C@H]1C(=O)N[C@@H](CO)C(=O)O [HEC-PT65]	0.624 nM	1.36 nM	0.157 nM
CC[C@H](C)[C@H](NC(=O)[C@H](Cc1ccccc1)NC(=O)[C@H](CCC(=O)O)NC(=O)[C@H](CCC(N)=O)NC(=O)[C@H](CCC(N)=O)NC(=O)[C@H](CCCNC(=N)N)NC(=O)[C@H](CCCCNC(=O)COCCOCCNC(=O)CC[C@H](NC(=O)CCCCCCCCCCCCCCCCCCC(=O)O)C(=O)O)NC(=O)[C@H](CCCNC(=N)N)NC(=O)[C@H](CC(=O)O)NC(=O)[C@H](CC(C)C)NC(=O)[C@H](CC(C)C)NC(=O)[C@@H](NC(=O)[C@H](CO)NC(=O)[C@H](Cc1ccc(O)cc1)NC(=O)[C@H](CC(=O)O)NC(=O)[C@H](CO)NC(=O)[C@@H](NC(=O)[C@](C)(Cc1ccccc1F)NC(=O)[C@@H](NC(=O)CNC(=O)[C@H](CCC(N)=O)NC(=O)C(C)(C)NC(=O)[C@@H](N)Cc1ccc(O)cc1)[C@@H](C)O)[C@@H](C)O)[C@@H](C)CC)C(=O)N[C@@H](CCC(=O)O)C(=O)N[C@@H](Cc1c[nH]c2ccccc12)C(=O)N[C@@H](CC(C)C)C(=O)N[C@@H](CC(C)C)C(=O)N[C@@H](C)C(=O)NCC(=O)NCC(=O)N1CCC[C@H]1C(=O)N[C@@H](CO)C(=O)N[C@@H](CO)C(=O)NCC(=O)N[C@@H](C)C(=O)N1CCC[C@H]1C(=O)N1CCC[C@H]1C(=O)N1CCC[C@H]1C(=O)N[C@@H](CO)C(=O)O [HEC-PT127]	0.127 nM	0.0707 nM	0.0465 nM
CC[C@H](C)[C@H](NC(=O)[C@H](CO)NC(=O)[C@H](Cc1ccc(O)cc1)NC(=O)[C@H](CC(=O)O)NC(=O)[C@H](CO)NC(=O)[C@@H](NC(=O)[C@](C)(Cc1ccccc1F)NC(=O)[C@@H](NC(=O)CNC(=O)[C@H](Cc1c[nH]cn1)NC(=O)C(C)(C)NC(=O)[C@@H](N)Cc1ccc(O)cc1)[C@@H](C)O)[C@@H](C)O)C(=O)N[C@@H](CC(C)C)C(=O)N[C@@H](CC(C)C)C(=O)N[C@@H](CC(=O)O)C(=O)N[C@@H](CCC(=O)O)C(=O)N[C@@H](CCCCNC(=O)COCCOCCNC(=O)CC[C@H](NC(=O)CCCCCCCCCCCCCCCCC(=O)O)C(=O)O)C(=O)N[C@@H](C)C(=O)N[C@@H](CCC(N)=O)C(=O)NC(C)(C)C(=O)N[C@@H](CCC(=O)O)C(=O)N[C@@H](Cc1ccccc1)C(=O)N[C@H](C(=O)N[C@@H](CCC(=O)O)C(=O)N[C@@H](Cc1c[nH]c2ccccc12)C(=O)N[C@@H](CC(C)C)C(=O)N[C@@H](CC(C)C)C(=O)N[C@@H](C)C(=O)NCC(=O)NCC(=O)N1CCC[C@H]1C(=O)N[C@@H](CO)C(=O)N[C@@H](CO)C(=O)NCC(=O)N[C@@H](C)C(=O)N1CCC[C@H]1C(=O)N1CCC[C@H]1C(=O)N1CCC[C@H]1C(=O)N[C@@H](CO)C(N)=O)[C@@H](C)CC [HEC-PT107]	0.267 nM	3.56 nM	0.079 nM

Reference: patent EP4596574A1, “GLP-1/GCG/GIP TRIPLE-RECEPTOR AGONIST AND USE THEREOF” (Sunshine Lake Pharma Co., Ltd., priority 2022, dated 2024)
